Entries after “also recorded” stand apart in the source; their conditions may differ.
System: MLO-Y4 cells
Assay: Integrin-like signaling (pFAK, pZyxin, pAKT, pCREB) in MLO-Y4 cells, immunoblot
Type: cell-based
Settings: MLO-Y4, inhibitor pre-treatment 10 minutes before irisin
Protocol: Integrin heterodimer binds to its ligand. The interaction results in phosphorylation of FAK and Zyxin, followed by phosphorylation of AKT (at T308) and CREB. PM is plasma membrane. FIG. 2C and FIG. 2D show the immunoblots. MLO-Y4 cells were seeded and incubated until 60% cell density. The cells were incubated with serum free medium (FreeStyle™ 293 medium) for 4 hours and were treated for indicated time with 10 nM norepinephrine or irisin (FIG. 2C) or indicated concentrations of irisin for 10 minutes (FIG. 2D). Cells were lysed to detect the indicated protein level using immunoblot analysis.
Certain materials and methods were used to generate the results described herein. For example, the data shown in FIG. 1A resulted from MLO-Y4 (an osteocyte-like cell line) cells treated with the indicated concentration of irisin and hydrogen peroxide for 4 hours. Cells were stained with Hoechst 33342 (ThermoFisher Scientific, catalog number H3570) and Eth-D1 (ThermoFisher Scientific, catalog number E1169) and analyzed to determine the percentage of cell death using ImageJ. The data shown in FIG. 2D resulted from MLO-Y4 incubated in serum free medium (FreeStyle™ 293 expression medium, ThermoFisher Scientific, catalog number 12338018) for 4 hours followed by treatment of indicated concentrations of irisin for 10 minutes. Cells were lysed to detect the indicated protein level using immunoblot analysis (Cell Signaling Technology, catalog numbers 3283S, 3285S, 8467S, 3553S, 9198S, and 9104S; Abcam, catalog number ab49900-100ul). The data shown in FIG. 3 resulted from 3T3-F442A cells incubated in serum free medium for 4 hours followed by treatment of indicated concentrations of irisin for 10 minutes. Cells were lysed by RIPA buffer to detect the indicated protein level using immunoblot analysis. The data shown in FIG. 4 were generated from 100 nM flag-tagged irisin (Enzo life sciences, catalog number ADI-908-307-3010) incubated with 5 nM of the indicated 6 his-tag integrins (R & D Systems Inc., catalog numbers 7064-AB-025, 5668-A4-050, 5438-A9-050, 6357-AB-050, and 6579-AV-025) in the presence of RGDS peptide (R & D Systems Inc., catalog number 3498/10) or its control peptide (Enzo Life Sciences, catalog Number BML-P701-0005) followed by immunoprecipitation using 6 his-tag beads (ThermoFisher Scientific, catalog number R901-01). Co-precipitated irisin was analyzed by immunoblot analysis against flag tag (Sigma Aldrich, catalog number A8592). The data shown in FIGS. 5A and 5B were generated from MLO-Y4 cells treated and analyzed as in the experiments used to generate the data shown in FIG. 2D, except that pre-treatment of 100 nM RGDS (FIG. 5A) or echistatin (R & D Systems Inc., catalog number 3202/100U) (FIG. 5B) for 10 minutes was performed before irisin treatment. The data shown in FIGS. 6A and 6B were generated from MLO-Y4 cells incubated in serum free medium for 3 hours followed by treatment of indicated time of 10 nM irisin for 16 hours. RNAs were extracted from the cells and the sclerostin mRNA level was analyzed by qPCR (FIG. 6A) or treated and analyzed as in (FIG. 6A), except that pre-treatment of 10 μM RGDS, RGDyK (Selleck, catalog number S7844), or echistatin was performed for 10 minutes before irisin treatment. The data shown in FIGS. 7A and 7B were generated from 8 week-old mice injected with the indicated dose of irisin for 6 days. Tibias were collected and treated with collagenase to obtain mRNA from the osteocyte-enriched bones. Sclerostin mRNA level was analyzed by qPCR (FIG. 7A). Serum was collected to analyze the sclerostin protein level using ELISA kit (R&D Systems Inc., catalog number MSST00) (FIG. 7B). The data shown in FIG. 8 were generated from 8 week-old mice injected with the indicated dose of irisin for 6 days. Epididymal fats were collected, RNAs were extracted from the tissues, and mRNA levels of the indicated genes were analyzed by qPCR. […]

Compound | effect of integrin inhibitor on irisin-induced signaling (phosphorylation of FAK, Zyxin, CREB)
RGDS peptide: classical integrin competitive inhibitory peptide, commercially available form of the RGD peptide | most irisin signaling in osteocytes was inhibited; also recorded: dramatically suppressed
N=C(N)NCCC[C@@H]1NC(=O)[C@H](CCCCN)NC(=O)[C@@H](Cc2ccc(O)cc2)NC(=O)[C@H](CC(=O)O)NC(=O)CNC1=O [cyclo RGDyK] | block irisin-induced signaling
